The term IC50 denotes the concentration at which inhibition is half-maximal. In general, melting point refers to the temperature of the solid-liquid transition.

Structures can show the parent of a compound that is named as a salt.

Here are results for 18 compounds from patent publication US8383647B2, “Quinoline derivative” (Takeda Pharmaceutical Company Limited, priority 2009, dated 2013).

One data set has as its target rat SLC-1 (Rattus norvegicus, UniProt P97639). Nature of the data set: MCH receptor antagonistic activity (inhibitory activity, Experimental Example 1). In kind it is biochemical.
The target in the next data set is human SLC-1 (Homo sapiens, UniProt Q99705). Described as above. In kind it is biochemical.
human SLC-1, sequence (Q99705 whole entry): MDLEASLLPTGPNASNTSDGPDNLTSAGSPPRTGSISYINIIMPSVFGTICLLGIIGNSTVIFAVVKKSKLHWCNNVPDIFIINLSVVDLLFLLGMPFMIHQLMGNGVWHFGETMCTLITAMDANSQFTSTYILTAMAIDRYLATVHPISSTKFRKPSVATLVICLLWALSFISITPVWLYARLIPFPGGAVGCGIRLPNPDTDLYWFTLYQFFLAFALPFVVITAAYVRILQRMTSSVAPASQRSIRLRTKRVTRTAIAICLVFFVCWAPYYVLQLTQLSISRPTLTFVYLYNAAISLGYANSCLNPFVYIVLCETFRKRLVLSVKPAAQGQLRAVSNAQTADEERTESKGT

rat SLC-1, sequence (P97639 whole entry): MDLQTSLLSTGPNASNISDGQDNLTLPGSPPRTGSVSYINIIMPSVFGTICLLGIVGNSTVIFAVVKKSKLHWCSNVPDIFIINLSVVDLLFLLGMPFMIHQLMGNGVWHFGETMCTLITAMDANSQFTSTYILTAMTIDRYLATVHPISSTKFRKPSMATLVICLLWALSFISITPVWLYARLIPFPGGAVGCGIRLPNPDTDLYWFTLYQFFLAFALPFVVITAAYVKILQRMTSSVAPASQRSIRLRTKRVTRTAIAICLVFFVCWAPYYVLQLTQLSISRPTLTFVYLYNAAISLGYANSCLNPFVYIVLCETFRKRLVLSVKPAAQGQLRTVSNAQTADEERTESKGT

As for `Cc1c(NC(=O)c2ccc(OCC3CCOC3)cc2)ccc2cc(CNCC(C)C)cnc12` (single isomer, unassigned) [Example 61, N-(8-methyl-3-{[(2-methylpropyl)amino]methyl}quinolin-7-yl)-4-(tetrahydrofuran-3-ylmethoxy)benzamide], the IC50 on rat SLC-1 worked out at 2.1 nM; on human SLC-1, 2.2 nM.

With `Cc1c(NC(=O)c2ccc(OCC3CCOC3)cc2)ccc2cc(CNC3CCCC3)cnc12` (centres unmarked) [Example 16, N-{3-[(cyclopentylamino)methyl]-8-methylquinolin-7-yl}-4-(tetrahydrofuran-3-ylmethoxy)benzamide], the melting point was in the range of 148 to 149 °C. The same compound had an IC50 at rat SLC-1 of 3.2 nM. The compound further had an IC50 against human SLC-1 of 2.8 nM.

`Cc1c(NC(=O)c2ccc(OC[C@H]3CCCO3)cc2)ccc2cc(CNCC(C)(C)C)cnc12` [Example 25, N-(3-{[(2,2-dimethylpropyl)amino]methyl}-8-methylquinolin-7-yl)-4-[(2R)-tetrahydrofuran-2-ylmethoxy]benzamide] displayed a melting point of 110 to 111 °C. Also, on rat SLC-1, the IC50 was 3.5 nM. On human SLC-1, this compound came in with an IC50 of 3.4 nM.

Consider `Cc1c(NC(=O)c2ccc(OC[C@@H]3CCCO3)cc2)ccc2cc(CNC[C@H]3CCCO3)cnc12` [Example 27, N-[8-methyl-3-({[(2R)-tetrahydrofuran-2-ylmethyl]amino}methyl)quinolin-7-yl]-4-[(2S)-tetrahydrofuran-2-ylmethoxy]benzamide], for which the melting point was 92 to 94 °C. The compound further yielded an IC50 at rat SLC-1 of 7.8 nM. In addition, on human SLC-1, half-maximal inhibition (IC50) was put at 6.3 nM.

`Cc1c(NC(=O)c2ccc(OC[C@@H]3CCCO3)cc2)ccc2cc(CNC[C@@H]3CCCO3)cnc12` [Example 29, N-[8-methyl-3-({[(2S)-tetrahydrofuran-2-ylmethyl]amino}methyl)quinolin-7-yl]-4-[(2S)-tetrahydrofuran-2-ylmethoxy]benzamide] yielded a melting point of 93 to 94 °C. Also, the IC50 against rat SLC-1 was 4.6 nM. The IC50 on human SLC-1 was 3.2 nM.

For `COC(C)(C)CNCc1cnc2c(C)c(NC(=O)c3ccc(OC[C@@H]4CCCO4)cc3)ccc2c1` [Example 30, N-(3-{[(2-methoxy-2-methylpropyl)amino]methyl}-8-methylquinolin-7-yl)-4-[(2S)-tetrahydrofuran-2-ylmethoxy]benzamide dihydrochloride], the IC50 against rat SLC-1 stood at 11 nM; at human SLC-1, 8.4 nM.

As to `Cc1c(NC(=O)c2ccc(OC[C@@H]3CCCO3)cc2)ccc2cc(CNCC3CCOCC3)cnc12` [Example 32, N-(8-methyl-3-{[(tetrahydro-2H-pyran-4-ylmethyl)amino]methyl}quinolin-7-yl)-4-[(2S)-tetrahydrofuran-2-ylmethoxy]benzamide], the melting point is 92 to 94 °C. Besides, the IC50 on rat SLC-1 was 6.4 nM. In addition, the IC50 at human SLC-1 came to 6 nM.

In turn, `Cc1c(NC(=O)c2ccc(OC[C@@H]3CCCO3)cc2)ccc2cc(CNCC3(C)COC3)cnc12` [Example 34, N-[8-methyl-3-({[(3-methyloxetan-3-yl)methyl]amino}methyl)quinolin-7-yl]-4-[(2S)-tetrahydrofuran-2-ylmethoxy]benzamide] displayed a melting point of 117 to 119 °C. The same compound showed an IC50 at rat SLC-1 of 6.5 nM. Also, the IC50 against human SLC-1 amounted to 5.5 nM.

With `CCNCc1cnc2c(C)c(NC(=O)c3ccc(OC[C@@H]4CCCO4)cc3)ccc2c1` [Example 35, N-{3-[(ethylamino)methyl]-8-methylquinolin-7-yl}-4-[(2S)-tetrahydrofuran-2-ylmethoxy]benzamide], the melting point was 149 to 151 °C. Further, the midpoint of inhibition against rat SLC-1, the IC50, lay at 17 nM. The same compound displayed a half-maximal inhibitory concentration (IC50) against human SLC-1 of 7.1 nM.

The compound `Cc1c(NC(=O)c2ccc(OC[C@@H]3CCCO3)cc2)ccc2cc(CNC3CCCC3)cnc12` [Example 36, N-{3-[(cyclopentylamino)methyl]-8-methylquinolin-7-yl}-4-[(2S)-tetrahydrofuran-2-ylmethoxy]benzamide] yielded a melting point of 152 to 153 °C. Also, the midpoint of inhibition against rat SLC-1, the IC50, lay at 3 nM. At human SLC-1, half-maximal inhibition (IC50) required 1.7 nM.

Consider `Cc1c(NC(=O)c2ccc(OC[C@@H]3CCCO3)cc2)ccc2cc(CNCC3CC3)cnc12` [Example 37, N-(3-{[(cyclopropylmethyl)amino]methyl}-8-methylquinolin-7-yl)-4-[(2S)-tetrahydrofuran-2-ylmethoxy]benzamide], for which the melting point was 156 to 158 °C. The compound further showed a half-inhibitory concentration (IC50) at rat SLC-1 of 4.1 nM. At human SLC-1, this compound returned an IC50 of 3 nM.

Compound `Cc1c(NC(=O)c2ccc(OC[C@@H]3CCCO3)cc2)ccc2cc(CNCC(C)C)cnc12` [Example 38, N-(8-methyl-3-{[(2-methylpropyl)amino]methyl}quinolin-7-yl)-4-[(2S)-tetrahydrofuran-2-ylmethoxy]benzamide] returned a melting point of 142 to 143 °C. On rat SLC-1, this compound displayed an IC50 of 1.7 nM. This compound showed an IC50 on human SLC-1 of 1.5 nM.

Consider `Cc1c(NC(=O)c2ccc(OC[C@@H]3CCCO3)cc2)ccc2cc(CNCC(C)(C)C)cnc12` [Example 39, N-(3-{[(2,2-dimethylpropyl)amino]methyl}-8-methylquinolin-7-yl)-4-[(2S)-tetrahydrofuran-2-ylmethoxy]benzamide], for which the melting point fell in the range of 114 to 116 °C. On rat SLC-1, this compound showed an IC50 of 2 nM. This compound yielded a half-maximal inhibitory concentration (IC50) on human SLC-1 of 1.8 nM.

The compound `Cc1c(NC(=O)c2ccc(OC[C@H]3CCCO3)cc2)ccc2cc(CN[C@H]3CC[C@H](O)CC3)cnc12` [Example 40, N-(3-{[(trans-4-hydroxycyclohexyl)amino]methyl}-8-methylquinolin-7-yl)-4-[(2R)-tetrahydrofuran-2-ylmethoxy]benzamide] gave a melting point of 182 to 183 °C. At rat SLC-1, this compound showed an IC50 of 13 nM. Moreover, the IC50 on human SLC-1 was 7.7 nM.

As to `Cc1c(NC(=O)c2ccc(OC[C@@H]3CCCO3)cc2)ccc2cc(CNCC3(O)CCCCC3)cnc12` [Example 41, N-[3-({[(1-hydroxycyclohexyl)methyl]amino}methyl)-8-methylquinolin-7-yl]-4-[(2S)-tetrahydrofuran-2-ylmethoxy]benzamide dihydrochloride], the IC50 against rat SLC-1 was 1.6 nM; on human SLC-1 it was 1.5 nM.

As for `CCCNCc1cnc2c(C)c(NC(=O)c3ccc(OC[C@@H]4CCCO4)cc3)ccc2c1` [Example 45, N-{8-methyl-3-[(propylamino)methyl]quinolin-7-yl}-4-[(2S)-tetrahydrofuran-2-ylmethoxy]benzamide], the melting point was 121 to 122 °C. Also, the IC50 against rat SLC-1 is 5.8 nM. Besides, the midpoint of inhibition against human SLC-1, the IC50, lay at 3.1 nM.

`Cc1c(NC(=O)c2ccc(OC[C@@H]3CCCO3)cc2)ccc2cc(CN[C@@H]3CCCC[C@H]3O)cnc12` [Example 46, N-[3-({[(1R,2R)-2-hydroxycyclohexyl]amino}methyl)-8-methylquinolin-7-yl]-4-[(2S)-tetrahydrofuran-2-ylmethoxy]benzamide] gave a melting point of 142 to 143 °C. On rat SLC-1, this compound registered an IC50 of 6.5 nM. For the same compound, inhibition against human SLC-1 was half-maximal at 4.5 nM (IC50).

In the case of `Cc1c(NC(=O)c2ccc(OC[C@H]3CCCO3)cc2)ccc2cc(CN[C@H]3CC[C@](C)(O)CC3)cnc12` [Example 51, N-(3-{[(trans-4-hydroxy-4-methylcyclohexyl)amino]methyl}-8-methylquinolin-7-yl)-4-[(2R)-tetrahydrofuran-2-ylmethoxy]benzamide], the values for the IC50 against rat SLC-1 and against human SLC-1 were 5.3 nM and 4.1 nM, respectively.
